According to patent publication US11679126B2, “Methods to enhance microvascular engraftment of bioengineered and primary tissues” (Children's Medical Center Corporation, priority 2016, dated 2023):

Experiments:
neutrophils [1] = experiment: Neutrophil recruitment into implanted A-Grafts at day 2 (flow cytometry); assay type: in vivo, nude mice
Experimental: (§1) Photopolymerizable methacrylated gelatin (GelMA) hydrogel was synthesized as previously described (Chen, et al. Adv. Funct. Mater. 22: 2027-2039 (2012)). GelMA prepolymer solution was prepared in PBS at 80° C. (5 w/v % final) with photoinitiator Irgacure 2959 (0.5 w/v %; CIBA Chemicals), and then allowed to cool down to 37° C. in a water bath. ECFCs and MSCs (4×10^5 total; 1:1 ratio) were suspended in 200 μL of GelMA solution and the mixture was polymerized by exposure to 7.5 mW/cm^2 UV light for 15 s at 37° C. Polymerized cell-laden constructs were referred to as unassembled grafts or U-Grafts. Alternatively, on indicated experiments, U-Grafts were constructed with ice-cold Phenol Red-free Matrigel (BD Bioscience). […]
(§2) Grafts were removed from euthanized mice and cells were retrieved by enzymatic (1 mg/mL collagenase and 2.5 U/mL dispase) digestion for 1 h at 37° C. […] Retrieved cells were also stained for flow cytometry and analyzed using a Guava easyCyte 6HT/2L flow cytometer (Millipore Corporation, Billerica, Mass.) and FlowJo software (Tree Star Inc., Ashland, Oreg.). […] In indicated experiments, retrieved cells were sorted into mCD45+/mLy6G+(neutrophils) and mCD45+/mLy6G−cells by fluorescence-activated cell sorting (FACS) using a FACSAria II 5-LASER sorter system (BD Bioscience). Sorted cells were analyzed immediately for gene expression by qPCR. […]

[2] = test system: A-Grafts (assembled human vascular networks); experiment: A-Graft revascularization after implantation into nude mice; assay type: in vivo
Experimental: as §1
(§3) Microvessel density was reported as the average number of erythrocyte-filled vessels (vessels/mm^2) in H&E-stained sections from the middle of the implants as previously described (Melero-Martin, et al. Circ. Res. 103:194-202 (2008)). The entire area of each section was analyzed. On specified experiments, human-specific microvessel density was quantified by evaluation of slides immunostained for human-specific CD31 (h-CD31). Perfused microvessel density was measured by injection of FITC-labeled lectins (UEA-1 or Iso-B4) before euthanizing graft-bearing mice, followed by staining of lectin-labeled vessels with anti-UEA-1 or anti-FITC antibodies. […]

[3] = test system: m-Islets endogenous gfp+ microvessels; experiment: Vascular sprouting of m-Islets embedded in hydrogel in vitro; assay type: cell-based, mouse; settings: 7 days in vitro
From the text: In order to develop an interface for the engraftment of islets, we embedded isolated m-Islets in our hydrogel in the presence or absence of DAPT (a γ-secretase inhibitor) and examined the effect on the vasculature of islets for 7 days. […] This is consistent with previous data in which transiently blocking Notch enhanced the revascularization potential of A-grafts (FIG. 14) (52). We also examined the effect of unassembled DsRed-ECFCs (FIG. 19B). […] Moreover, the newly formed ECFC-lined vessels (DsRed+) interacted with the gfp+ vasculature of the m-Islets, and this interconnectivity was enhanced in the presence of DAPT (FIG. 19B).

CXCL1, CXCL8, and IL6 = experiment: Human cytokine protein array of conditioned media from A-Grafts; assay type: cell-based; settings: A-Grafts exposed for 24 h
Experimental: as §1, with “Bioscience). Assembled grafts or A-Grafts were constructed by culturing U-Grafts in vitro for 7 days using EGM2 with […]. A-Grafts contained easily observable, fully-assembled vascular networks. Both, U-Grafts and A-Grafts were subcutaneously implanted into back of 6-week-old male athymic nu/nu mice for engraftment studies. On specified experiments, DsRed-labeled ECFCs were used to visualize the formation of assembled vascular networks in A-Grafts.” for “Bioscience).”
The presence of selected cytokines was evaluated in samples of CM with human cytokine protein arrays (R&D Systems Inc.) according to the manufacturer's instructions. […]

neutrophils [4] = experiment: Neutrophil recruitment plug assay; assay type: in vivo, nu/nu mice; settings: Matrigel plugs containing CM, day 2
Experimental: Concentrated CM (50 μL) was mixed with 200-μL of Matrigel and injected subcutaneously into nu/nu mice. After 2 days, plugs were explanted and infiltrated cells were retrieved by enzymatic digestion and subjected to flow cytometric analysis. Concentrated basal media (basal-M: EBM-2, 5% FBS) served as control. In indicated experiments, neutralizing antibodies against IL6, CXCL1 or CXCL8 (5 μg/antibody/plug) were added to concentrated CM 30 min prior to implantation. Individual neutralizing antibodies and the combination of three were compared.

CXCR2 = target: T1, CXCR2 (Homo sapiens, UniProt P25025); settings: in vitro and in vivo, previous studies; cited from earlier work
T1 sequence (P25025 1-360): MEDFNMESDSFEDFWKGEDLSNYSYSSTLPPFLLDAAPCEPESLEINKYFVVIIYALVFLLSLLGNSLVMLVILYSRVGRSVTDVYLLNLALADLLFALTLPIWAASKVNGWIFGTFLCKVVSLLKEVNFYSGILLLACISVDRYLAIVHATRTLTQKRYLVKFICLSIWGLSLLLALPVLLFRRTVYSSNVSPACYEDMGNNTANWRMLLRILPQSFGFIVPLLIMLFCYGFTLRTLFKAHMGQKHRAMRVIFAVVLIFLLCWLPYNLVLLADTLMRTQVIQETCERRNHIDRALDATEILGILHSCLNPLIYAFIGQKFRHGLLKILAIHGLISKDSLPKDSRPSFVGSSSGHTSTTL

neutrophils [5] = experiment: Neutrophil recruitment into implanted U-Grafts at day 2 (flow cytometry); assay type: in vivo, nude mice; settings: 7.5 mg/kg intraperitoneally daily
Experimental: as §1, §2

[6] = test system: U-Grafts (human ECFCs + MSCs); experiment: U-Graft vascularization after subcutaneous implantation into treated nude mice; assay type: in vivo; design: number of perfused vessels at day 7 in U-grafts: dose or concentration left out as unconfirmed; settings: for U-Graft vascularization / microvessel density compared with control: U-Grafts in treated mice, day 7
Experimental: as §1, with “Bioscience). Assembled grafts or A-Grafts were constructed by culturing U-Grafts in vitro for 7 days using EGM2 with […]. A-Grafts contained easily observable, fully-assembled vascular networks. Both, U-Grafts and A-Grafts were subcutaneously implanted into back of 6-week-old male athymic nu/nu mice for engraftment studies. On specified experiments, DsRed-labeled ECFCs were used to visualize the formation of assembled vascular networks in A-Grafts.” for “Bioscience).”
as §3
[…] Neutrophil recruitment at day 2 and graft vascularization at day 7 were measured as described before. […]

C[C@H](NC(=O)Cc1cc(F)cc(F)c1)C(=O)N[C@H](C(=O)OC(C)(C)C)c1ccccc1 [DAPT, N—[N-(3,5-Difluorophenylacetyl-L-alanyl)]-S-phenylglycine t-Butyl ester]
neutrophils in A-Grafts compared with control (neutrophils [1]): significantly more
perivascular coverage (α-SMA+ cells) of human vessels in A-Grafts ([2]; day 7, A-Grafts treated 24 h before implantation): did not compromise proper perivascular coverage
perfused microvessel networks in A-Grafts ([2]; day 7 in vivo, compared with untreated / basal-M A-Grafts): more extensive networks of perfused microvessels
sprouting activity of endogenous gfp+ microvessels (number and length of sprouts) ([3]; m-Islets in hydrogel, vs untreated islets): significantly higher
interconnectivity between ECFC-lined vessels (DsRed+) and m-Islets vasculature (gfp+) ([3]; m-Islets with unassembled DsRed-ECFCs in hydrogel): enhanced
expression of cytokines in conditioned media of A-Grafts (CXCL1, CXCL8, and IL6): reactivated the expression of several cytokines
neutrophil recruitment into subcutaneous plugs (neutrophils [4]): recruited significantly more neutrophils

O=C(Nc1ccc([N+](=O)[O-])cc1O)Nc1ccccc1Br [SB225002]
neutrophil chemotaxis in response to CXCL8 (CXCR2): effectively inhibits
neutrophil presence in implanted U-Grafts (neutrophils [5]): significantly impaired
U-Graft vascularization / microvessel density compared with control [6]: significantly lower

NC(=O)c1ccc(-c2nc(-c3ccccn3)c(-c3ccc4c(c3)OCO4)[nH]2)cc1 [SB432542]
U-Graft vascularization / microvessel density compared with control [6]: completely abrogated
number of perfused vessels at day 7 in U-grafts ([6]; mice treated daily, intraperitoneal): insignificant
